Test results: PMC7316778 (Nature Communications, 2020)
“And” between values parts separate entries of the source, which are not always exact repeats. Equal entries are not always repeated. Where two headings read alike, the source gives them in different places.

What was measured:
[1] = target: MAPK14 (p38 alpha) (Homo sapiens, UniProt Q16539); assay: SelectScreen kinase assay
Protocol: (§1) Selectivity profiling assays were performed by the Invitrogen SelectScreen™ Services. […] The concentration of ATP was selected to be equal to the KM, unless indicated otherwise.

[2] = target: NEK6 (Homo sapiens, UniProt Q9HC98); assay: SelectScreen kinase assay; settings: for Inhibition at 1 µM (%): NEK6, ZLYTE, ATP Km app
Chain of NEK6 (Q9HC98 whole entry): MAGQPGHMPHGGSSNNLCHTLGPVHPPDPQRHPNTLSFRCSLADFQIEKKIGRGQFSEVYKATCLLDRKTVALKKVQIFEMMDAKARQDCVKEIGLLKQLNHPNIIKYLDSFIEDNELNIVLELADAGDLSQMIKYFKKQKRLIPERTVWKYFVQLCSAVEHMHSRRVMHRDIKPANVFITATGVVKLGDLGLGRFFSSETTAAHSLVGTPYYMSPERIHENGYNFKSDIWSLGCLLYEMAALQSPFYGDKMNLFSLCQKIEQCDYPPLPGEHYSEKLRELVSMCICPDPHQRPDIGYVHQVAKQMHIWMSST
Protocol: as §1

[3] = target: SGK2 (Homo sapiens, UniProt Q9HBY8); assay: SelectScreen kinase assay
Chain of SGK2 (Q9HBY8 whole entry): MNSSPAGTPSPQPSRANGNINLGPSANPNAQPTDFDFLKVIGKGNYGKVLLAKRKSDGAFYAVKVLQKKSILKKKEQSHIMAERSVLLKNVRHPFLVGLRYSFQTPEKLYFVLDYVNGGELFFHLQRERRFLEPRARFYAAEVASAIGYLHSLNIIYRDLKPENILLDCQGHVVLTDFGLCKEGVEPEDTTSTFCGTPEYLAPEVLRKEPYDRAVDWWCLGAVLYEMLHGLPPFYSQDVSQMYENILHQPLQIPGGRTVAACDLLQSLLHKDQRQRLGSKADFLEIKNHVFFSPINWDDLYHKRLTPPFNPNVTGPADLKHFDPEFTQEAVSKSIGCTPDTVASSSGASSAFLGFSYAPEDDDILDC
Protocol: as §1

[4] = target: PKN1 (PRK1) (Homo sapiens, UniProt Q16512); assay: SelectScreen kinase assay
Chain of PKN1 (PRK1) (Q16512 whole entry): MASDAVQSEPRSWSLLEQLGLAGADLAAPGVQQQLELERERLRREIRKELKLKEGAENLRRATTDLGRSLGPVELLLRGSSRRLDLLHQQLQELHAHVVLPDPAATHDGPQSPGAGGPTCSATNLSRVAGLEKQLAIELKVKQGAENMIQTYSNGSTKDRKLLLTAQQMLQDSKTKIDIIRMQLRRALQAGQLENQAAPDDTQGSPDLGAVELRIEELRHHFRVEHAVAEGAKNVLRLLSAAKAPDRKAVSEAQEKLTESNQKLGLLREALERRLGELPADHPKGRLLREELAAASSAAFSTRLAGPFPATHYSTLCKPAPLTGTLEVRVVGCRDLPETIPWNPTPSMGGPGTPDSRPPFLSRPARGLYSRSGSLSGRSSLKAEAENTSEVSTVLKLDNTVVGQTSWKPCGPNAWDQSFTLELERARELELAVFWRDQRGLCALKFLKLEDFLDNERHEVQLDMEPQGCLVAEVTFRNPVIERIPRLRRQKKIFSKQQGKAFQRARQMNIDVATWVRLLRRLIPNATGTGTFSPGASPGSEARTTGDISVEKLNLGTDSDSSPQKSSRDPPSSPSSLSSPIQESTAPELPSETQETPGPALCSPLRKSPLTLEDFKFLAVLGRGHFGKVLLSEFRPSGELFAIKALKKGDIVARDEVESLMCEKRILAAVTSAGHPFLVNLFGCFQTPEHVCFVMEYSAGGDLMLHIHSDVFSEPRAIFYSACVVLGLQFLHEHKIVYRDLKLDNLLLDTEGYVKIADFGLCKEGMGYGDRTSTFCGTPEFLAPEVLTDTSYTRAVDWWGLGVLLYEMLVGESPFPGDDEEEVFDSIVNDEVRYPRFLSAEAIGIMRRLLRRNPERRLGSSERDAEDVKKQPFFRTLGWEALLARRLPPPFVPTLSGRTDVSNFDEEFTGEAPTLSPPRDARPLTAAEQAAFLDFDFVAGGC
Protocol: as §1

[5] = target: PHKG1 (Homo sapiens, UniProt Q16816); assay: SelectScreen kinase assay; settings: 1 h, 1 μM WEL028, 1 h preincubation
Protocol: as §1

[6] = target: RPS6KA2 (RSK3) (Homo sapiens, UniProt Q15349); assay: SelectScreen kinase assay; settings: 1 h, 1 μM WEL028, 1 h preincubation
Protocol: as §1

[7] = target: GSK3B (GSK3 beta) (Homo sapiens, UniProt P49841); assay: SelectScreen kinase assay
Protocol: as §1

[8] = target: BMPR1B (ALK6) (Homo sapiens, UniProt O00238); assay: SelectScreen kinase assay
Protocol: as §1

[9] = target: ~40 kDa protein (Homo sapiens, UniProt P28482); assay: Gel-based target engagement in HL-60 neutrophils; settings: HL-60, read-out: Inhibition of off-target labeling
Protocol: Data represent means ± SEM.
The term in situ is used to designate experiments in which live cell cultures are treated with inhibitor, whereas the term in vitro refers to experiments in which the inhibitor is incubated with cell lysates. Compounds were diluted in growth medium from a 1000x concentrated stock solution in DMSO. […] After 48 h, cells were treated with compound for 1 h. Cells were collected by suspension in PBS and centrifuged (1000g, 5 min, rt). Pellets were flash-frozen in liquid nitrogen and stored at −80 °C until use. For in situ treatment post-differentiation, HL-60 cells were differentiated as described above and incubated with compound for 1 h unless specified otherwise. Cells were collected by suspension for non-adherent cells and trypsinization for adherent cells. After collection, cells were centrifuged (200g, 5 min, rt) and washed in equal volume of PBS (1000g, 5 min, rt). Cell pellets were flash-frozen in liquid nitrogen and stored at −80 °C until use.

[10] = target: PAK7 (KIAA1264) (Homo sapiens, UniProt Q9P286); assay: SelectScreen kinase assay
Chain of PAK7 (KIAA1264) (Q9P286 whole entry): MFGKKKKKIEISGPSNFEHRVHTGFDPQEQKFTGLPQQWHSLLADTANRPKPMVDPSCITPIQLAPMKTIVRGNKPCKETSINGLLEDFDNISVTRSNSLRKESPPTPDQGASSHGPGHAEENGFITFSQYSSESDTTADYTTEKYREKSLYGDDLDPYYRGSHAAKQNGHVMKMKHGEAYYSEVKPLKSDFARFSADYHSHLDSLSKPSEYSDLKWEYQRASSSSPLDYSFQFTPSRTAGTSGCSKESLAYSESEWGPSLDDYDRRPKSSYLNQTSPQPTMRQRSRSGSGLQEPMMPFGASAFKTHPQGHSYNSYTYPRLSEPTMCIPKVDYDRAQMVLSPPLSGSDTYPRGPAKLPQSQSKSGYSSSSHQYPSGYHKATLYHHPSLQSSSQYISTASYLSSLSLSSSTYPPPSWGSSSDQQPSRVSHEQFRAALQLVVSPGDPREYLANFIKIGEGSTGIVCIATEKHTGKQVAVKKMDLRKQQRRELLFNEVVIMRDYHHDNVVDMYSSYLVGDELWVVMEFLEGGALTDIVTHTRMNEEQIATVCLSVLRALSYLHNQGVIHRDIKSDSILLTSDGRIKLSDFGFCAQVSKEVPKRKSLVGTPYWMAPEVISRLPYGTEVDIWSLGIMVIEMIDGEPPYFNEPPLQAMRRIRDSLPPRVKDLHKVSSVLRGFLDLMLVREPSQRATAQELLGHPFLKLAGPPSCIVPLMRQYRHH
Protocol: as §1

[11] = target: NEK2 (Homo sapiens, UniProt P51955); assay: SelectScreen kinase assay
Protocol: as §1

[12] = target: ERBB4 (HER4) (Homo sapiens, UniProt Q15303); assay: SelectScreen kinase assay; settings: for Inhibition at 1 µM (%): ERBB4 (HER4), ZLYTE, ATP Km app
Chain of ERBB4 (HER4) (Q15303 26-1308): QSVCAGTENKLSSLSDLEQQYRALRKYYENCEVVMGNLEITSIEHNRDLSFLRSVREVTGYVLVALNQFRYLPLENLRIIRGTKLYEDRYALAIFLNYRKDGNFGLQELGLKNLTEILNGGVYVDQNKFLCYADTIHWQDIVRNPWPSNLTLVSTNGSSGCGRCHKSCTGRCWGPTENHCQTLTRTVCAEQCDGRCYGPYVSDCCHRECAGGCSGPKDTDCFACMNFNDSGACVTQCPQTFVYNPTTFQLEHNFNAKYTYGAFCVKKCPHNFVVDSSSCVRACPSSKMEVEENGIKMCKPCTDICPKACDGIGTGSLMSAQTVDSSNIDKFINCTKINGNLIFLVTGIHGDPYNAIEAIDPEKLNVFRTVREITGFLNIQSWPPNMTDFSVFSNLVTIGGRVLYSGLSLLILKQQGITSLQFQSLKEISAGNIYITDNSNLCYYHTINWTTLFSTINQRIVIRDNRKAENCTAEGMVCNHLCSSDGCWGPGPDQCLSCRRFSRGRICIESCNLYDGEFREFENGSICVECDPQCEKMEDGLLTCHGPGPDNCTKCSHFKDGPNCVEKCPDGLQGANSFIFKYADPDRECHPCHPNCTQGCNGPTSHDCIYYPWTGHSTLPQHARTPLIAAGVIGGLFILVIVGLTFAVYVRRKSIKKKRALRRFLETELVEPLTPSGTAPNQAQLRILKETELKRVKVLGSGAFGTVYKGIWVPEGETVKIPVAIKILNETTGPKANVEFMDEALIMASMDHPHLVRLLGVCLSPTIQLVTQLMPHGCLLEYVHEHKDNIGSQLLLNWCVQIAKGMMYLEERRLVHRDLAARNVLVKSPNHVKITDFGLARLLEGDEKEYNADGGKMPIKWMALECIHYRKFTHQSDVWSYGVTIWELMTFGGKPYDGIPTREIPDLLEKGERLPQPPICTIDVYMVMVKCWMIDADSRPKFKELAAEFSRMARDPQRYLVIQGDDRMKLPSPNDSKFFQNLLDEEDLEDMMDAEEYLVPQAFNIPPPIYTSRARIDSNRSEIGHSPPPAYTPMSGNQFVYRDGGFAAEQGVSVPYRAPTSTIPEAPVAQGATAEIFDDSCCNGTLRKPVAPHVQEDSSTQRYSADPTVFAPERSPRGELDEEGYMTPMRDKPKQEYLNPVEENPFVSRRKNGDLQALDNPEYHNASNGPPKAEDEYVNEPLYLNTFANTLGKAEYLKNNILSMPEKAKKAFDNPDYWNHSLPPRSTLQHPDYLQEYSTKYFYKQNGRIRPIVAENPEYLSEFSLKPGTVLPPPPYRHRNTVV
Protocol: as §1

[13] = target: T1, MAPK15 (ERK7) (Homo sapiens, UniProt Q8TD08); assay: SelectScreen kinase assay
T1 sequence (Q8TD08 1-544): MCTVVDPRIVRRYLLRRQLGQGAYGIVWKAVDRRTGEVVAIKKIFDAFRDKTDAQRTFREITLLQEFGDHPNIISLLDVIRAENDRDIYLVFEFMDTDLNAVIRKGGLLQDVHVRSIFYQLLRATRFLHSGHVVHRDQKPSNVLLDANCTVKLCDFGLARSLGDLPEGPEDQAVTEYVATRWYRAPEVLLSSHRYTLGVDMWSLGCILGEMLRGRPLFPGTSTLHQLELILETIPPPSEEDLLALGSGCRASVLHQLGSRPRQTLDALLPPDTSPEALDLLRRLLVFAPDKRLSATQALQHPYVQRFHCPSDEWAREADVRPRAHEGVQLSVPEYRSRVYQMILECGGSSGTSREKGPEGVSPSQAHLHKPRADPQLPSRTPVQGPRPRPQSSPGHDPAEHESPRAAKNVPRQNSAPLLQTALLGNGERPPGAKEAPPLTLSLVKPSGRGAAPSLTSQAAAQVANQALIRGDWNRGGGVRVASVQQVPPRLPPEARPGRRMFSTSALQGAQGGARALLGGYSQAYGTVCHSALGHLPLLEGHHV
Protocol: as §1

[14] = target: full-length FES^S700C (Homo sapiens, UniProt P07332, S700C); assay: Competitive probe labeling with WEL033 in HEK293T lysate (gel-based)
[15] = target: LCK (Homo sapiens, UniProt P06239); assay: SelectScreen kinase assay
Chain of LCK (P06239 whole entry): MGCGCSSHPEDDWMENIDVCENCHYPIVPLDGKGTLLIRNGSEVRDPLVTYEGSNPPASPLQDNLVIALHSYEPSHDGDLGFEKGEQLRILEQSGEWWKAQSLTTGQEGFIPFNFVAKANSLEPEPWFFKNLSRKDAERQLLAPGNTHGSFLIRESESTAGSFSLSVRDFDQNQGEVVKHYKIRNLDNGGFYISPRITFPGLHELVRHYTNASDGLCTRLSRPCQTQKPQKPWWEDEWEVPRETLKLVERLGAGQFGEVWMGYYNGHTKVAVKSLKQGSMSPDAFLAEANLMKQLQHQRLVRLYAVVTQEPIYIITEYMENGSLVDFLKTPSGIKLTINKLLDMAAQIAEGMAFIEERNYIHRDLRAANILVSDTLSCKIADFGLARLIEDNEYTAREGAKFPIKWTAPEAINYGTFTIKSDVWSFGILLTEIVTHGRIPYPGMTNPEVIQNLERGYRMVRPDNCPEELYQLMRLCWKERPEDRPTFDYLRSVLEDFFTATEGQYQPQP
Protocol: as §1

[16] = target: PI4K2B (PI4K2 beta) (Homo sapiens, UniProt Q8TCG2); assay: SelectScreen kinase assay; settings: for Inhibition at 1 µM (%): PI4K2B (PI4K2 beta), Adapta, ATP 10
Chain of PI4K2B (PI4K2 beta) (Q8TCG2 whole entry): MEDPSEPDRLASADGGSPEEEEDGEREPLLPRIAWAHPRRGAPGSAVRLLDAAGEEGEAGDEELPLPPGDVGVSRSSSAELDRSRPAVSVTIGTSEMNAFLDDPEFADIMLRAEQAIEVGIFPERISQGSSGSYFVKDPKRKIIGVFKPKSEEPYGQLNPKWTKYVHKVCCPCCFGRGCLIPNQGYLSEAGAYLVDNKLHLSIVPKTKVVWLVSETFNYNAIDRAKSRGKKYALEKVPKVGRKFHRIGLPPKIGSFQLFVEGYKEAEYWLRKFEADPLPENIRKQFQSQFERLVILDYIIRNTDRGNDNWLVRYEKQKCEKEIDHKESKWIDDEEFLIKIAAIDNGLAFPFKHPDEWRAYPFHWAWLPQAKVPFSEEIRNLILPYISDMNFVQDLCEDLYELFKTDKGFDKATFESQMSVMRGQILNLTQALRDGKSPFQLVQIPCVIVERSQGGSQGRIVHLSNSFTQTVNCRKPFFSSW
Protocol: as §1

[17] = target: FES^S700C (Homo sapiens, UniProt P07332, S700C); assay: In situ two-step labeling of transfected HEK293T cells (click chemistry); type: cell-based; set-up: expressed in transfected cells; host or cells: HEK293T (transient, PEI)
[18] = 1 h, 1 μM WEL028, 1 h preincubation

Chain of MAPK14 (p38 alpha) (Q16539 whole entry): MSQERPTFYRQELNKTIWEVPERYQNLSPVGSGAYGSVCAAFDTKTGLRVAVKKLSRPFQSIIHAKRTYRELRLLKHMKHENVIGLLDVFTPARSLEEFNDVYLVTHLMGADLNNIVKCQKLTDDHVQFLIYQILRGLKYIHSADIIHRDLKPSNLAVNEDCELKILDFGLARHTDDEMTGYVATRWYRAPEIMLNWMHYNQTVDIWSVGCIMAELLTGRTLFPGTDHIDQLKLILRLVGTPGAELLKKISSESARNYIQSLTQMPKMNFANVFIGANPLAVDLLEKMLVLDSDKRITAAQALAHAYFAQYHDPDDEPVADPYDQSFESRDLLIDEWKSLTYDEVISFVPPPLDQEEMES

`C#CCOc1ccc(Nc2ncc(Cl)c(Nc3ccccc3NC(=O)C=C)n2)c(OC)c1` [Compound 6] was tested, and the “Inhibition (%)” value ([1]; 1 μM WEL028, 1 h preincubation) was 7%, the “Inhibition at 1 µM (%)” value ([1]; MAPK14 (p38 alpha) Direct, 1 µM, ZLYTE, ATP Km app, listed as WEL028, 1 µM) was 4% and 10% and the inhibition at 1 µM [2, 18] was 9%. The “Inhibition at 1 µM (%)” value [2] was 13%, the “Inhibition at 1 µM (%)” value ([2]; listed as WEL028, 1 µM) was 5% and the “Inhibition at 1 µM (%)” value ([3]; 1 µM, ZLYTE, ATP Km app, listed as WEL028, 1 µM) was 4% and -1%. The inhibition at 1 µM [3, 18] was 2%, the inhibition at 1 µM [4, 18] was 7% and the “Inhibition at 1 µM (%)” value ([4]; PKN1 (PRK1), 1 µM, ZLYTE, ATP Km app, listed as WEL028, 1 µM) was 5%. It also gave an inhibition at 1 µM ([4]; read-out: Inhibition at 1 µM (%), PKN1 (PRK1), 1 µM, ZLYTE, ATP Km app) of 8%, an inhibition at 1 µM [5] of -2% and an inhibition at 1 µM [6] of 19%. For the same molecule, the inhibition at 1 µM [7, 18] was 4%, the inhibition at 1 µM ([7]; read-out: Inhibition at 1 µM (%), GSK3B (GSK3 beta), 1 µM, ZLYTE, ATP Km app) was 5% and the inhibition at 1 µM ([8]; 1 h) was 24%. For the same molecule, the inhibition at 1 µM ([8]; read-out: Inhibition at 1 µM (%)) was 24%, the inhibition at 0.1 µM [9] was ~10% and the inhibition at 1 µM [10, 18] was 12%. For the same molecule, the “Inhibition at 1 µM (%)” value ([10]; PAK7 (KIAA1264), 1 µM, ZLYTE, ATP Km app, listed as WEL028, 1 µM) was 15%, the inhibition at 1 µM ([10]; read-out: Inhibition at 1 µM (%), PAK7 (KIAA1264), 1 µM, ZLYTE, ATP Km app) was 10% and the inhibition at 1 µM [11, 18] was 12%. For the same molecule, the “Inhibition at 1 µM (%)” value ([11]; NEK2, 1 µM, ZLYTE, ATP Km app) was 21%, the inhibition at 1 µM [12, 18] was 8% and the “Inhibition at 1 µM (%)” value [12] was 11%. The “Inhibition at 1 µM (%)” value ([12]; listed as WEL028, 1 µM) was 5%, the inhibition at 1 µM [13, 18] was 5% and the “Inhibition at 1 µM (%)” value ([13]; MAPK15 (ERK7), 1 µM, LanthaScreen Binding, listed as WEL028, 1 µM) was 4%. For the same molecule, the inhibition at 1 µM ([13]; read-out: Inhibition at 1 µM (%), MAPK15 (ERK7), 1 µM, LanthaScreen Binding) was 7%, the IC50 [14] was 12.6 nM and the inhibition at 1 µM [15, 18] was 5%. The “Inhibition at 1 µM (%)” value ([15]; LCK, 1 µM, ZLYTE, ATP Km app, listed as WEL028, 1 µM) was 6%, the inhibition at 1 µM ([15]; read-out: Inhibition at 1 µM (%), LCK, 1 µM, ZLYTE, ATP Km app) was 4% and the inhibition at 1 µM [16, 18] was 2%. The “Inhibition at 1 µM (%)” value [16] was 3%, the “Inhibition at 1 µM (%)” value ([16]; listed as WEL028, 1 µM) was 0% and the Cell permeability ([17]; living HEK293T cells) was “cell-permeable”. For the same molecule, the “Concentration sufficient to fully block labeling of FES^S700C” value ([17]; living HEK293T cells) was 100 nM and the IC50 ([17]; transfected HEK293T cells treated with WEL028, click chemistry, n = 3, read-out: pIC50, labeling of FES^S700C in live cells (converted)) was 25.1 nM.
